Measurements reported in paper PMC6463675, “Panax ginseng Inhibits Metabolism of Diester Alkaloids by Downregulating CYP3A4 Enzyme Activity via the Pregnane X Receptor” (Evidence-based Complementary and Alternative Medicine : eCAM, 2019).

Legend:
PXR = system: PXR; set-up: method as in PMID 23600156; settings: previous work of the authors; cited from earlier work
CYP3A4 [1] = test: Cocktail method: pharmacokinetics of probe drug midazolam after P. ginseng; settings: rats, ketoconazole 40 mg·kg^−1 intraperitoneal 3 days, midazolam 10 mg·kg^−1 caudal vein
CYP3A4 [2] = target: T1, CYP3A4 (Homo sapiens, UniProt P08684); test: Specific inhibitor method in HLMs: ketoconazole; format: in vitro ADME; set-up: tissue Rild-biotech X008067; host or cells: human liver microsomes; settings: alkaloid 20 μM, KEN 1 μM (specific inhibitor for CYP3A), 37°C 60 min, n = 3
Description: (§1) To screen the CYP isoforms for aconitine, mesaconitine, and hypaconitine metabolism, we used known inhibitors of the metabolism of aconitine, mesaconitine, and hypaconitine in HLMs. ANF (CYP1A2: 1 μM; CAS: […]), SPE (CYP2C9: 1 μM; CAS: 526-08-9), DDTC (CYP2E1: 1 μM; CAS: 148-18-5), and KEN (CYP3A4: 1 μM; CAS: 65277-42-1) were all from EFEBIO Co., Ltd., which were incubated separately with aconitine, mesaconitine, and hypaconitine (20 μM), HLMs, and NADPH under the same incubation conditions as mentioned above. […] The hepatic metabolism rate of the incubation solution with no inhibitor was used as the negative control. The HLM (Rild-biotech, shanghai, China, X008067 ) mixtures were incubated at 37°C for 60 min. NADPH was preincubated for 5 min before it was added to the system. Precooled acetonitrile/methanol (800 μL, 1:1, v/v) was added to stop the incubation. […] Aconitine, mesaconitine, and hypaconitine standards of different concentrations were added to the incubation system to obtain the standard curve.
Target sequence in this assay (P08684 whole entry, canonical isoform): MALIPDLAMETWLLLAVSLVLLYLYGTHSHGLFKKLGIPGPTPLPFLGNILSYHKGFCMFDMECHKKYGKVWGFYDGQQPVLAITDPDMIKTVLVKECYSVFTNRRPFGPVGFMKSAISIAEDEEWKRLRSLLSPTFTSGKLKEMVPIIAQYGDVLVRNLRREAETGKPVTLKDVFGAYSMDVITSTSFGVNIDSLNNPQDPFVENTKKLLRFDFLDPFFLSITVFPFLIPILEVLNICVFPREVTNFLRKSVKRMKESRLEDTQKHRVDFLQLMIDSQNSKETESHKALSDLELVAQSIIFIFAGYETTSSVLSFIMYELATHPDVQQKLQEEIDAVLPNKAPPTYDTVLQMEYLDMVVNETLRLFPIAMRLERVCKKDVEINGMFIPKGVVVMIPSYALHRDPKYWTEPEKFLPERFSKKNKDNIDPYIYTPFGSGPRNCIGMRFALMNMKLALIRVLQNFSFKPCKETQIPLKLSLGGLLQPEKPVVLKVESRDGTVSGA

CYP2E1 = target: T2, CYP2E1 (Homo sapiens, UniProt P05181); test: Specific inhibitor method in HLMs: diethyldithiocarbonate; format: in vitro ADME; settings: alkaloid 20 μM, DDTC 1 μM (CYP2E1), 37°C 60 min, P > 0.05
T2 construct: tissue Rild-biotech X008067; host or cells: human liver microsomes
Description: as §1

CYP3A4 [3] = target: T1, CYP3A4; test: Kinetic analysis in recombinant human CYP3A4; format: in vitro ADME; set-up: purchased Corning 456202; host or cells: baculovirus infected insect cells (BTI-TN-5B1-4); settings: for in vitro mean intrinsic clearance rate by CYP3A4: CLint = Vmax/KM
Text: (§2) Recombinant human cytochrome P450 enzymes were obtained from Corning (USA, CYP3A4:456202; CYP1A2:456203; CYP2C9:456218; CYP2E1:456206). The activity were catalyzed by CYP3A4/CYP1A2/CYP2C9/CYP2E1, which were expressed from human CYP3A4/CYP1A2/CYP2C9/CYP2E1 cDNA, respectively, using a baculovirus expression system. Baculovirus infected insect cells (BTI-TN-5B1-4) were used to prepare these microsomes. These microsomes also contain cDNA-expressed humans P450 reductase and human cytochrome b5. A microsome preparation using wild type virus (Catalog No. 456201) was used as a control for native activities.
(§3) The kinetic parameters for the metabolism of aconitine, mesaconitine, and hypaconitine were determined by incubating increasing concentrations of aconitine, mesaconitine, and hypaconitine (5, 10, 20, and 40 μM) at 37°C for 90min with recombinant human CYP isoforms and NADPH under the incubation conditions described above. Precooled acetonitrile/methanol (800 μL, 1:1, v/v) was added to stop the incubation.
(§4) The compound reaction velocity (V) is expressed as V = (C0 – Ct)/T/Cp, where C0 and Ct are the initial and final concentrations of aconitine, mesaconitine, or hypaconitine in the incubation solution, respectively, T is the incubation time (min), and Cp is the protein concentration (mg·mL^−1 or nmol). The mean intrinsic clearance rate (CLint) for the in vitro incubation was estimated using Vmax/KM, where Vmax is the maximum velocity and KM is the Michaelis constant. All values are expressed as the mean ± standard deviation (SD).
Target sequence in this assay (P08684 2-503 limits assumed): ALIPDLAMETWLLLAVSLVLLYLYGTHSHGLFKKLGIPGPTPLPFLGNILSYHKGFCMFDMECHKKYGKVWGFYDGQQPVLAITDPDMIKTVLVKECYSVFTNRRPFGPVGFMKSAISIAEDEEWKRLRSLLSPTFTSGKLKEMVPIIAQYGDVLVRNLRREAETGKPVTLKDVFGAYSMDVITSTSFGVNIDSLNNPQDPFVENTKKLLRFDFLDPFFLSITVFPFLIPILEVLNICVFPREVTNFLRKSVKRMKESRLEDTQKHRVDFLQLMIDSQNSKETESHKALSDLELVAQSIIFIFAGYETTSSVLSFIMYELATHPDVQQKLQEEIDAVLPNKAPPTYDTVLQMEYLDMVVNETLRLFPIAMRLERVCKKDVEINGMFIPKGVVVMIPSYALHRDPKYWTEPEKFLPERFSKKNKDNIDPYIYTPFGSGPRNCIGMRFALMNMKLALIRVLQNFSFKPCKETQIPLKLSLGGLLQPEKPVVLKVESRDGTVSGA

CYP3A4 [4] = system: CYP3A4; set-up: method as in PMID 23600156; settings: concentration-dependent manner; cited from earlier work
recombinant human CYP1A2 = target: T3, recombinant human CYP1A2 (Homo sapiens, UniProt P05177); test: Kinetic analysis in recombinant human CYP1A2; format: in vitro ADME; settings: substrate 5, 10, 20, 40 μM, 37°C 90 min, n = 3
T3 construct: purchased Corning 456203; host or cells: baculovirus infected insect cells (BTI-TN-5B1-4)
T3 sequence (P05177 2-516 limits assumed): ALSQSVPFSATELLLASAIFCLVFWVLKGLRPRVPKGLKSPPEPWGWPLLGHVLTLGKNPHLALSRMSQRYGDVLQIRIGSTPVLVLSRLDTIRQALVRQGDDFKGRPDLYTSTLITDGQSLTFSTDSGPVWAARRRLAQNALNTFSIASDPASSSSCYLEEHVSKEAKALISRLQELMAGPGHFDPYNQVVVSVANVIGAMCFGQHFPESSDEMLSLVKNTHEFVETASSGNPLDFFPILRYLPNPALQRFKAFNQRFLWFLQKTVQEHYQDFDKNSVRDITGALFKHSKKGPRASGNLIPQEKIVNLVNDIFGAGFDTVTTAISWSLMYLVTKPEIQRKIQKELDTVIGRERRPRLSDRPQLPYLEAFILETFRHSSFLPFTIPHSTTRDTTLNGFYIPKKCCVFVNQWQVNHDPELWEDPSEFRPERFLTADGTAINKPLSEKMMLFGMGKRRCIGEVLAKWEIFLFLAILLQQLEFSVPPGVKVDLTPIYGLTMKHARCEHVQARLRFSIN
Text: as §2, §3
as §4, with “The mean intrinsic clearance rate (CLint) for the in vitro incubation was estimated using Vmax/KM, where Vmax is the maximum velocity and KM is the Michaelis constant.” left out

[5] = recombinant human CYP3A4, substrate 5, 10, 20, 40 μM, 37°C 90 min, n = 3

T2 sequence (P05181 whole entry): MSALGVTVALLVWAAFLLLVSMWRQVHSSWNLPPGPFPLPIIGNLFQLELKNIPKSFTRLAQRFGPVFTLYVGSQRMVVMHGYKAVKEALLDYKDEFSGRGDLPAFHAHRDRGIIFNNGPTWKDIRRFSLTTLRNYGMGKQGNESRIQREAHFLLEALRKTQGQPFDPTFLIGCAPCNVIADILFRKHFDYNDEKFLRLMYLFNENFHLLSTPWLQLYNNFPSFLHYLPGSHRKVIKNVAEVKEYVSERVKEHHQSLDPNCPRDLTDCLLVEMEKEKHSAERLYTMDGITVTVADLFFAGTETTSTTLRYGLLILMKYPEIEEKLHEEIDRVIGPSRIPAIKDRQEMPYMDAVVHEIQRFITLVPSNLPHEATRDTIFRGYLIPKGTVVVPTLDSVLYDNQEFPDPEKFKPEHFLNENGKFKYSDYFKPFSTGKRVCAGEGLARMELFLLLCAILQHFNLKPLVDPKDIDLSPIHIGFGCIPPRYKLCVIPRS

In the case of `CC(C)=CCC[C@](C)(O[C@@H]1O[C@H](CO[C@@H]2OC[C@@H](O)[C@H](O)[C@H]2O)[C@@H](O)[C@H](O)[C@H]1O)[C@H]1CC[C@]2(C)[C@@H]1[C@H](O)C[C@@H]1[C@@]3(C)CC[C@H](O[C@@H]4O[C@H](CO)[C@@H](O)[C@H](O)[C@H]4O[C@@H]4O[C@H](CO)[C@@H](O)[C@H](O)[C@H]4O)C(C)(C)[C@@H]3CC[C@]12C` [ginsenoside Rb3], the “Effect on PXR” value (PXR) is given as “inhibitory effects”.

In the case of ginsenoside Rf1, the “Effect on PXR” value (PXR) is given as “no obvious effects”.

In the case of `CC(C)=CCCC(C)(O)[C@H]1CC[C@]2(C)[C@@H]1[C@H](O)C[C@@H]1[C@@]3(C)CC[C@H](O)C(C)(C)[C@@H]3CC[C@]12C` (stereo in doubt) [protopanaxadiol], the “Effect on PXR” value (PXR) is given as “no obvious effects”.

In the case of `CC(C)=CCC[C@](C)(O)[C@H]1CC[C@]2(C)[C@@H]1[C@H](O)C[C@@H]1[C@@]3(C)CC[C@H](O[C@@H]4O[C@H](CO)[C@@H](O)[C@H](O)[C@H]4O)C(C)(C)[C@@H]3CC[C@]12C` [Rh2], the “Effect on PXR” value (PXR) is given as “no obvious effects”.

For `CC(C)=CCC[C@](C)(O[C@@H]1O[C@H](CO)[C@@H](O)[C@H](O)[C@H]1O)[C@H]1CC[C@]2(C)[C@@H]1[C@H](O)C[C@@H]1[C@@]3(C)CC[C@H](O[C@@H]4O[C@H](CO)[C@@H](O)[C@H](O)[C@H]4O)C(C)(C)[C@@H]3CC[C@]12C` [Ginsenoside F2], the “Effect on PXR” value (PXR) is given as “moderate inductive effects”.

In the case of `CC(=O)N1CCN(c2ccc(OCC3COC(Cn4ccnc4)(c4ccc(Cl)cc4Cl)O3)cc2)CC1` (stereo not drawn) [Ketoconazole], the “AUC(0-t) of midazolam” value (CYP3A4 [1]; control 2.23 ± 0.64) is reported as 4.19 ± 0.14^∗∗ mg^.L^-1.h, the “AUC(0-∞) of midazolam” value (CYP3A4 [1]; control 2.30 ± 0.59) is reported as 4.25 ± 0.15^∗∗ mg^.L^-1.h and the CLz of midazolam (CYP3A4 [1]; control 4.66 ± 1.43) is reported as 2.36 ± 0.08^∗∗ L^.h^-1.kg^−1. The Cmax of midazolam (CYP3A4 [1]; control 4.84 ± 1.89) was 10.48 ± 0.63^∗∗ mg^.L^−1.

For `CC(C)=CCC[C@](C)(O)[C@H]1CC[C@]2(C)[C@@H]1[C@H](O)C[C@@H]1[C@@]3(C)CC[C@H](O[C@@H]4O[C@H](CO)[C@@H](O)[C@H](O)[C@H]4O[C@@H]4O[C@H](CO)[C@@H](O)[C@H](O)[C@H]4O)C(C)(C)[C@@H]3CC[C@]12C` [Rg3], the “Effect on PXR” value (PXR) is given as “no obvious effects”.

For `CC1(C)CCC[C@](C)([C@H]2CC[C@]3(C)[C@@H]2[C@H](O)C[C@@H]2[C@@]4(C)CC[C@H](O)C(C)(C)[C@@H]4[C@@H](O)C[C@]23C)O1` [Panaxotriol], the “Effect on PXR” value (PXR) is listed as “inhibitory effects”.

In the case of `CC(C)=CCC[C@](C)(O)[C@H]1CC[C@]2(C)[C@@H]1[C@H](O)C[C@@H]1[C@@]3(C)CC[C@H](O)C(C)(C)[C@@H]3[C@@H](O)C[C@]12C` [protopanaxatriol], the “Effect on PXR” value (PXR) is given as “moderate inductive effects”.

In the case of `CCN1C[C@]2(COC)[C@H](O)C[C@H](OC)[C@@]34[C@@H]5C[C@@]6(O)[C@H](OC(=O)c7ccccc7)[C@@H]5[C@@](OC(C)=O)([C@@H]([C@H](OC)[C@H]23)[C@@H]14)[C@@H](O)[C@@H]6OC` [aconitine], the “Hepatic metabolism rate when incubated with KEN, compared with negative control” value (CYP3A4 [2]) is reported as 60.37 ± 5.01%, the “Hepatic metabolism rate after incubation with DDTC, compared with control” value (“Hepatic metabolism rate … compared with control” below) (CYP2E1) is reported as “no significant change” and the Km at 90 min (CYP3A4 [3]; human) is reported as 10.1 ± 3.26 µM. The “in vitro mean intrinsic clearance rate by CYP3A4” value (CYP3A4 [3]; recombinant human CYP3A4) was 0.0119 mL·nmol CYP^−1·min^−1 and the “Vmax of CYP3A4” value (CYP3A4 [3]; [5]) was 0.12 ± 0.01 nmol·mg protein^−1·min^−1.

For `COC[C@@]12CC[C@H](OC)[C@]34C(C([C@H](OC)[C@H]13)[C@]1(OC(C)=O)[C@H]3[C@@H](OC(=O)c5ccccc5)[C@](O)(C[C@H]34)[C@@H](OC)[C@@H]1O)N(C)C2` [hypaconitine], the “Hepatic metabolism rate when incubated with KEN, compared with negative control” value (CYP3A4 [2]) was 10.11 ± 6.19%, the “Hepatic metabolism rate … compared with control” value (CYP2E1) was “no significant change” and the “in vitro mean intrinsic clearance rate by CYP3A4” value (CYP3A4 [3]; recombinant human CYP3A4) was 0.0091 mL·nmol CYP^−1·min^−1.

For `CC(C)=CCC[C@](C)(O)[C@H]1CC[C@]2(C)[C@@H]1[C@H](O)C[C@@H]1[C@@]3(C)CC[C@H](O)C(C)(C)[C@@H]3[C@@H](O[C@@H]3O[C@H](CO)[C@@H](O)[C@H](O)[C@H]3O[C@@H]3O[C@@H](C)[C@H](O)[C@@H](O)[C@H]3O)C[C@]12C` [ginsenoside Rg2], the “Effect on PXR” value (PXR) is listed as “inhibitory effects”.

For `CC(C)=CCC[C@](C)(O[C@@H]1O[C@H](CO)[C@@H](O)[C@H](O)[C@H]1O)[C@H]1CC[C@]2(C)[C@@H]1[C@H](O)C[C@@H]1[C@@]3(C)CC[C@H](O)C(C)(C)[C@@H]3[C@@H](O[C@@H]3O[C@H](CO)[C@@H](O)[C@H](O)[C@H]3O)C[C@]12C` [ginsenoside Rg1], the “Effect on PXR” value (PXR) is given as “inhibitory effects” and the “CYP3A4 mRNA expression” value (CYP3A4 [4]) is given as “downregulated”.

For `COC[C@]12CN(C)[C@@H]3[C@@H]4[C@H](OC)[C@H]1[C@@]3([C@@H](OC)C[C@H]2O)[C@@H]1C[C@@]2(O)[C@H](OC(=O)c3ccccc3)[C@@H]1[C@]4(OC(C)=O)[C@@H](O)[C@@H]2OC` [mesaconitine], the “Hepatic metabolism rate when incubated with KEN, compared with negative control” value (CYP3A4 [2]) was 21.67 ± 19.64%, the “Hepatic metabolism rate … compared with control” value (CYP2E1) was “no significant change” and the “Vmax of CYP1A2” value (recombinant human CYP1A2) was 0.27 ± 6.57 nmol·mg protein^−1·min^−1. For the same compound, the “in vitro mean intrinsic clearance rate by CYP3A4” value (CYP3A4 [3]; recombinant human CYP3A4) was 0.0056 mL·nmol CYP^−1·min^−1, the Km (CYP3A4 [3]; [5]) was 131 ± 99.7 µM and the “Vmax of CYP3A4” value (CYP3A4 [3]; [5]) was 0.73 ± 0.44 nmol·mg protein^−1·min^−1.

For pseudoginsenoside F11, the “Effect on PXR” value (PXR) is listed as “inhibitory effects”.
